Reference: patent publication US10259810B2, “N-sulfonylated pyrazolo[3,4-b]pyridin-6-carboxamides and method of use” (AbbVie S.à.r.l., priority 2015, dated 2019)

Key:
ΔF508-CFTR = biological target: T1, ΔF508-CFTR (Homo sapiens, UniProt P13569, DEL508-508); assay: CFTR cell surface levels using HRP-tagged ΔF508-CFTR expressing CFBE cells, in the presence of a co-corrector; assay type: cell-based; conditions: HRP-tagged ΔF508-CFTR CFBE cells, in the presence of 3 μM co-corrector; for EC50: read-out: EC50
T1 construct: host or cells: CFBE41o-, doxycycline-inducible
T1 sequence (P13569 with tags, fused parts or gaps DEL508-508): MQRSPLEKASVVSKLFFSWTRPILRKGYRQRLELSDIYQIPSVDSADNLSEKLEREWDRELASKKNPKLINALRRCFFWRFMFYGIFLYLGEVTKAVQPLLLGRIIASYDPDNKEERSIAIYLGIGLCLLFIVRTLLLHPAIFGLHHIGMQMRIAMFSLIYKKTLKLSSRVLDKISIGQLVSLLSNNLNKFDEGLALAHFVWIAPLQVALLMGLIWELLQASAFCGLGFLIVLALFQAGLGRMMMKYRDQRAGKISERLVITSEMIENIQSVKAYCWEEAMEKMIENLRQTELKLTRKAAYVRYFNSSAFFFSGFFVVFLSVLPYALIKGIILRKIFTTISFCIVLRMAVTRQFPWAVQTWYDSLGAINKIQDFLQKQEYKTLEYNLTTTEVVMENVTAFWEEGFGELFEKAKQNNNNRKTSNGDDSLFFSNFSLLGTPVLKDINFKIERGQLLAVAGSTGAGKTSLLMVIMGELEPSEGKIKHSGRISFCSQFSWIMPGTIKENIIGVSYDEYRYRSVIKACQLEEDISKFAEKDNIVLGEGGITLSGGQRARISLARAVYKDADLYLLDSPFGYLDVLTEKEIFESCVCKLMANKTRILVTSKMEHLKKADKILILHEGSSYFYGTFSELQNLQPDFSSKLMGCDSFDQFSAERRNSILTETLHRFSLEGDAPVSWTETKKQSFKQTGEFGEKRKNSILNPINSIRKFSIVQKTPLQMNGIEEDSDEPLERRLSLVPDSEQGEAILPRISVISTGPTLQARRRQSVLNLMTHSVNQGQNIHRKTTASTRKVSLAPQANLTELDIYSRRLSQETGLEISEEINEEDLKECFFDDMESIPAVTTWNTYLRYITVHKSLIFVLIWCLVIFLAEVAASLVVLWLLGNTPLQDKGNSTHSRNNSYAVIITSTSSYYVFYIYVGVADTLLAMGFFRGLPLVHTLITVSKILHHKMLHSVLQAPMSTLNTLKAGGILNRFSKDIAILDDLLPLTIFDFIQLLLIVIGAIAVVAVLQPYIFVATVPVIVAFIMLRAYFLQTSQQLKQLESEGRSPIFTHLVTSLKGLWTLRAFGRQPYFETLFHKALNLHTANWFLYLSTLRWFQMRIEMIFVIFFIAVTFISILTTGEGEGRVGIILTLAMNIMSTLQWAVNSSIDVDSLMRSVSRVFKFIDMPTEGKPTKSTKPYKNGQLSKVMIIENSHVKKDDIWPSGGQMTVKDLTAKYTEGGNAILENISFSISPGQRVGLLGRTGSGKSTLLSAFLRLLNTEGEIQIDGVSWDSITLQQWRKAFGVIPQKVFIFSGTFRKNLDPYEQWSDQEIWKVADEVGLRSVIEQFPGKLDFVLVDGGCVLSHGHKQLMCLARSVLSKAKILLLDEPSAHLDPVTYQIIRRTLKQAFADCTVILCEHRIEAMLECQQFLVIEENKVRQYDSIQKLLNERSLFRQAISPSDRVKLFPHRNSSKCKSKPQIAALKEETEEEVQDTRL
Summary of the method: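 Chemiluminescent read-out of surface HRP (15 min, dark) after PBS washes. Activity is normalized as 100×(sample−DMSO)/(3 μM co-corrector alone−DMSO).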

CFTR ΔF508 = biological target: T2, CFTR ΔF508 (Homo sapiens, UniProt P13569, DEL508-508); assay: Acute TECC assay, primary bronchial epithelial cells of CF patients homozygous for CFTR ΔF508, with and without co-corrector; assay type: cell-based; conditions: 24 h, Ieq based on maximum current, normalized to DMSO and positive control; for % Activity at 3 μM (Ieq*): 3 μM compound
T2 construct: bronchial epithelial cells isolated from CF patients homozygous for the CFTR ΔF508 mutation; McGill University; Asterand; University of North Carolina hAEC-CF; host or cells: primary human bronchial epithelial cells from CF patients homozygous for ΔF508, differentiated at air-liquid interface
T2 sequence (P13569 with tags, fused parts or gaps DEL508-508): as above
Experimental: Primary Bronchial Epithelial Cells Protocol
The TECC (Tranepithelial Clamp Circuit, EP-design) assay measures the functionality of the cystic fibrosis Transmembrane Conductance regulator (CFTR) by measuring the short circuit current (Isc) generated over the basolateral and apical membrane of lung epithelial cells. In TECC the transepithelial potential PD and transepithelial resistance (Rt) are measured in an open circuit and transformed to Ieq using Ohm's law. 24 Wells can be measured simultaneously allowing a higher throughput compared to Ussing chambers.
For this purpose, bronchial epithelial cells isolated from CF patients homozygous for the CFTR ΔF508 mutation (hAEC-CF, Epithelix, Geneva, Switzerland; McGill University, Montreal, Qc; Asterand, Detroit, Mich.; University of North Carolina, Chapel Hill, N.C.) are plated on type IV collagen-coated Transwell® supports (Costar). Human airway epithelia are generated by provision of an air-liquid interface for 21 days to form well-differentiated polarized cultures that resemble in vivo pseudo-stratified ciliated epithelium (Fulcher, M. L., Gabriel, S., Burns, K. A., Yankaskas, J. R., Randell, S. H., 2005. Well-differentiated human airway epithelial cell cultures. Methods Mol. Med. 107, 183-206). The differentiated cells are treated with test corrector compound(s) (corrector alone or in combination with co-corrector, 4-[(2R,4R)-4-({[1-(2,2-difluoro-1,3-benzodioxol-5-yl)cyclopropyl]carbonyl}amino)-7-methoxy-3,4-dihydro-2H-chromen-2-yl]benzoic acid (“acute”) or test corrector compounds, co-corrector and potentiator, N-(3-carbamoyl-5,5,7,7-tetramethyl-4,7-dihydro-5H-thieno[2,3-c]pyran-2-yl)-1H-pyrazole-5-carboxamide (“chronic”) for 24 hours basolaterally to allow sufficient expression of properly folded CFTR protein on the membrane. All compound plates contained negative controls (DMSO) and positive controls (0.15 μM, 4-[(2R,4R)-4-({[1-(2,2-difluoro-1,3-benzodioxol-5-yl)cyclopropyl]carbonyl}amino)-7-(difluoromethoxy)-3,4-dihydro-2H-chromen-2-yl]benzoic acid).
For electrophysiological recording of the “acute” experiments, the human airway epithelia are mounted in the TECC heating plate and kept at 37° C. The epithelia are bathed in a NaCl-Ringer solution (120 mM NaCl, 25 mM NaHCO3, 1.2 mM CaCl2, 1.2 mM MgCl2, 0.8 mM KH2PO4, 0.8 mM K2HPO4, pH 7.4, 5 mM glucose) on both the basolateral and apical sides. Apical amiloride is used to inhibit the endogenous epithelial sodium channel (ENaC) currents while forskolin is applied on both apical and basolateral side to stimulate CFTR. CFTR activity is measured by addition of forskolin followed by addition of a potentiator, N-(3-carbamoyl-5,5,7,7-tetramethyl-4,7-dihydro-5H-thieno[2,3-c]pyran-2-yl)-1H-pyrazole-5-carboxamide, on both sides. The potentiator, 3-amino-N-[(2S)-2-hydroxypropyl]-5-{[4-(trifluoromethoxy)phenyl]sulfonyl}pyridine-2-carboxamide, was used in place of N-(3-carbamoyl-5,5,7,7-tetramethyl-4,7-dihydro-5H-thieno[2,3-c]pyran-2-yl)-1H-pyrazole-5-carboxamide in some assays. Measurements are done during a 20 minute timeframe with recordings every 2 minutes. […] Inhibitor-172, an inhibitor specific for CFTR, is used to test the specificity of the tested compounds. Raw data were normalized to percentage activity values using the equation: 100×(Sample−Negative control)/(Positive control−Negative Control).

Row | Compound | % Activation (ΔF508-CFTR) [%] | EC50 (ΔF508-CFTR) [nM] | % Activity at 3 μM (Ieq*) (CFTR ΔF508; without co-corrector) [%] | % Activity at 10 μM (Ieq*) (CFTR ΔF508; 10 μM compound, without co-corrector) [%] | % Activity at 3 μM with co-corrector (Ieq*) (CFTR ΔF508; 3 μM compound with co-corrector) [%]
1 | CC(C)c1nn(-c2cccc(N3CCC3)c2)c2nc(C(=O)NS(C)(=O)=O)cc(-c3ccc(N4CCOCC4)cc3)c12 [Compound 10, 1-[3-(azetidin-1-yl)phenyl]-N-(methanesulfonyl)-4-[4-(morpholin-4-yl)phenyl]-3-(propan-2-yl)-1H-pyrazolo[3,4-b]pyridine-6-carboxamide] | 606.5 | 443 | 591.84 |  | 
2 | CC(C)c1nn(C2CCCCC2)c2nc(C(=O)NS(C)(=O)=O)cc(-c3cnc(N4CCOCC4)nc3)c12 [Compound 11, 1-cyclohexyl-N-(methanesulfonyl)-4-[2-(morpholin-4-yl)pyrimidin-5-yl]-3-(propan-2-yl)-1H-pyrazolo[3,4-b]pyridine-6-carboxamide] | 381.33 | 455 | 351 |  | 
3 | Cc1nn(-c2ccccc2)c2nc(C(=O)NS(C)(=O)=O)cc(N3CCCCC3)c12 [Compound 13, N-(methanesulfonyl)-3-methyl-1-phenyl-4-(piperidin-1-yl)-1H-pyrazolo[3,4-b]pyridine-6-carboxamide] | 341.75 | 1470 | 74.32 | 174.53 | 
4 | CS(=O)(=O)NC(=O)c1cc(-c2ccc(N3CCC(C#N)CC3)nc2)c2c(C3CCC3)nn(C3CCCCC3)c2n1 [Compound 104, 4-[6-(4-cyanopiperidin-1-yl)pyridin-3-yl]-3-cyclobutyl-1-cyclohexyl-N-(methanesulfonyl)-1H-pyrazolo[3,4-b]pyridine-6-carboxamide] | 411.33 | 344 |  |  | 102.36
